# Data as given in patent US10844092B2, “Peptide for promoting regeneration of dentin or dental pulp tissue” (HysensBio Co., Ltd., priority 2016, dated 2020).
# What was measured:
# Dspp gene = test: mRNA level of Dspp gene in MDPC-23 cells by real-time PCR; assay type: cell-based, mouse; conditions: 48 hours, ratio relative to Dspp mRNA level of control group, triplicate
# Procedure: The MDPC-23 cells cultured in Example 2-1 were treated with the peptides of the respective groups which were synthesized in Example 1, and cultured for 48 hours. Then, mRNA levels of an odontoblast differentiation marker Dspp gene expressed in the MDPC-23 cells were measured, and a ratio of the measured Dspp mRNA level relative to a Dspp mRNA level measured in a control group was calculated, respectively (Tables 13 to 24). Further, mean values of the Dspp mRNA levels measured in the peptides of respective groups were compared between the groups (FIG. 1B). In this regard MDPC-23 cells which were treated with none of the peptides of the present invention were used as a control group.
# The expression levels of the Dspp gene were measured by RT-PCR and real time PCR analysis: In detail, total RNA was extracted from the MDPC-23 cells with TRIzol reagent. 2 μg of the total RNA, 1 μl of reverse transcriptase, and 0.5 μg oligo (dT) were used to synthesize cDNA. The synthesized cDNA were used in real-time polymerase chain reaction. The real-time polymerase chain reaction was performed on an ABI PRISM 7500 sequence detection system (Applied Biosystems) using the following primers and a SYBR GREEN PCR Master Mix (Takara, Japan). The real-time polymerase chain reaction was performed under conditions of 94° C., 1 min; 95° C., 15 sec 60° C., 34 sec for 40 cycles. Results were analyzed by a comparative cycle threshold (CT) method. In this regard, Gapdh gene was used as an internal control. The experiments were performed in triplicate, and then mean values and standard deviations thereof were taken as measured values.
# [1] = system: physiologic dentin (tertiary dentin); test: Indirect pulp capping canine model, physiologic (tertiary) dentin formation; assay type: in vivo, dogs; conditions: 1.5 μg, 3 weeks
# Source text: In detail, to establish dentin-damaged canine models by indirect pulp capping, a part of enamel in the cervical part was removed from the premolars of 12-month-old adult dogs by using a dental bur. The dentin was shallowly removed according to the exposure degree of the dentin to form a shallow cavity, thereby establishing a shallow cavity model. The dentin was deeply removed such that the dental pulp was seen through, but not exposed to the outside, thereby establishing a deep cavity model. The models were treated with the control group, the peptide of Group 11, or the peptide of Group 12. 3 weeks later, the adult dogs were euthanized, and teeth were extracted therefrom.
# (§1) The extracted teeth were fixed in 4% paraformaldehyde for 2.4 hours, washed with PBS (pH 7.4) several times, and then decalcified with 10% formic acid. The decalcified teeth were embedded in paraffin to prepare tissue sections. The tissue sections were stained with hematoxylin/eosin (H&E), and dentin regeneration capabilities were evaluated by histological analysis.
# DSP = test: Immunostaining of transplanted tissues for DSP; assay type: in vivo, immunocompromised mice
# Source text: (§2) Briefly, the removed tissues were fixed in 4% paraformaldehyde, decalcified in 10% EDTA (pH 7.4), embedded in paraffin, and then immunostained with anti-DSP and anti-BSP antibodies at a dilution of 1:150 as primary antibodies, and reacted with biotin-labeled goat anti-rabbit IgG (Vector Labs) as secondary antibodies to determine DSP and BSP levels (FIG. 4). In this regard, the tissue transplanted with an implant including none of the peptides of the present invention was used as a control group.
# (§3) In this regard, a tissue transplanted with an implant including none of the peptides of the present invention was used as a control group.
# [2] = system: physiologic dentin (tertiary dentin); test: Direct pulp capping canine model, physiologic (tertiary) dentin formation; assay type: in vivo, dogs; conditions: exposed pulp, peptide 1.5 μg, sealed with MTA, covered with GI cement, 3 weeks, FIG. 12
# Procedure: In detail, to establish dentin-damaged canine models by direct pulp capping, the enamel and dentin in the cervical part were removed from the premolars of 12-month-old adult dogs by using a dental bur so that the dental pulp was exposed to the outside. The models were treated with the control group, the peptide of Group 11, or the peptide of Group 12. 3 weeks later, the adult dogs were euthanized and teeth were extracted therefrom.
# as §1, with “24” for “2.4”
# BSP = test: Immunostaining of transplanted tissues for BSP; assay type: in vivo, immunocompromised mice
# Source text: as §2, §3
# [3] = system: root canal spaces of human teeth; test: Implant transplanted into root canal spaces of human teeth (H-E, SEM); assay type: in vivo; conditions: 6 weeks
# Procedure: Reportedly, the dentinal wall and the empty pulp cavity of a natural tooth provide the specific local environment for the regeneration of dentin/pulp-like tissues by dental pulp cells (Huang G T, et al. (2010) Tissue engineering. Part A 16(2):605-615). Therefore, formation of dentin/pulp-like tissues in root canal spaces was evaluated.
# In detail, among the implants prepared in Example 3-1, a comparative implant or an implant including the peptide of Group 12 (SEQ ID NO: 96) at a concentration of 10 μg/ml was transplanted into the root canal spaces of human teeth for 6 weeks, and dentin dental pulp-like tissues formed in the respective implants were subjected to hematoxylin-eosin (H-E) staining according to the method of Example 3-1, and photographed by a scanning electron microscope according to the method of Example 3-7 (FIG. 9).
# [4] = deep cavity model, together with GI cement, FIG. 11
# [5] = 6 weeks after transplantation, FIG. 4
# [6] = 12 weeks after transplantation, FIG. 7
Substance,"mRNA level of Dspp gene, Mean (Dspp gene)",other results
67 (KYKQRRKNKY; Synthetic construct of novel peptide) [compound 67],1.777,–
68 (KYKQRRRNKY; Synthetic construct of novel peptide) [compound 68],1.432,–
69 (KYKQKKKNKY; Synthetic construct of novel peptide) [compound 69],2.011,–
70 (KYKQKRKNKY; Synthetic construct of novel peptide) [compound 70],1.927,–
71 (KYKQKKRNKY; Synthetic construct of novel peptide) [compound 71],1.879,–
72 (KYKQKRRNKY; Synthetic construct of novel peptide) [compound 72],2.011,–
73 (KYKQRKKSKY; Synthetic construct of novel peptide) [compound 73],2.035,–
74 (KYKQRKRSKY; Synthetic construct of novel peptide) [compound 74],2.011,–
75 (KYKQRRKSKY; Synthetic construct of novel peptide) [compound 75],1.997,–
76 (KYKQRRRSKY; Synthetic construct of novel peptide) [compound 76],2.351,–
77 (KYKQKKKSKY; Synthetic construct of novel peptide) [compound 77],1.729,–
78 (KYKQKRKSKY; Synthetic construct of novel peptide) [compound 78],2.635,–
79 (KYKQKKRSKY; Synthetic construct of novel peptide) [compound 79],2.231,–
80 (KYKQKRRSKY; Synthetic construct of novel peptide) [compound 80],1.837,–
81 (KYKQRKKNYK; Synthetic construct of novel peptide) [compound 81],3.092,–
82 (KYKQRKRNYK; Synthetic construct of novel peptide) [compound 82],3.361,–

Substance,"mRNA level of Dspp gene, Mean (Dspp gene)",other results
83 (KYKQRRKNYK; Synthetic construct of novel peptide) [compound 83],3.572,–
84 (KYKQRRRNYK; Synthetic construct of novel peptide) [compound 84],3.702,–
85 (KYKQKKKNYK; Synthetic construct of novel peptide) [compound 85],3.670,–
86 (KYKQKRKNYK; Synthetic construct of novel peptide) [compound 86],3.705,–
87 (KYKQKKRNYK; Synthetic construct of novel peptide) [compound 87],3.888,–
88 (KYKQKRRNYK; Synthetic construct of novel peptide) [compound 88],4.021,–
89 (KYKQRKKSYK; Synthetic construct of novel peptide) [compound 89],4.211,–
90 (KYKQRKRSYK; Synthetic construct of novel peptide) [compound 90],4.811,–
91 (KYKQRRKSYK; Synthetic construct of novel peptide) [compound 91],4.362,–
92 (KYKQRRRSYK; Synthetic construct of novel peptide) [compound 92],4.211,–
93 (KYKQKKKSYK; Synthetic construct of novel peptide) [compound 93],4.525,–
94 (KYKQKRKSYK; Synthetic construct of novel peptide) [compound 94],3.836,–
95 (KYKQKKRSYK; Synthetic construct of novel peptide) [compound 95],4.620,–
96 (KYKQKRRSYK; Synthetic construct of novel peptide) [compound 96],5.211,–
KYKQKKRNYK (Synthetic construct of novel peptide) [SEQ ID NO: 87],–,"dentin regeneration (histological analysis, H&E) [1, 4]: regeneration of physiologic tertiary dentin (TD) which was continuous with the odontoblast processes of the original dentin structure was observed; dentin regeneration (histological analysis, H&E) ([1]; shallow cavity model, FIG. 10): regeneration of physiologic tertiary dentin (TD) which was continuous with the odontoblast processes of the original dentin structure was observed; DSP expression level (DSP; [5]): relatively high DSP expression level; DSP expression level (DSP; [6]): relatively very high DSP expression levels; dentin regeneration (histological analysis, H&E) [2]: new physiologic dentin (TD) which was continuous with the odontoblast processes of the original dentin was formed; BSP expression level (BSP; [5]): low BSP expression level; BSP expression level (BSP; [6]): low BSP expression level"
KYKQKRRSYK (Synthetic construct of novel peptide) [SEQ ID NO: 96],–,"dentin regeneration (histological analysis, H&E) [1, 4]: regeneration of physiologic tertiary dentin (TD) which was continuous with the odontoblast processes of the original dentin structure was observed; dentin regeneration (histological analysis, H&E) ([1]; shallow cavity model, FIG. 10): regeneration of physiologic tertiary dentin (TD) which was continuous with the odontoblast processes of the original dentin structure was observed; DSP expression level (DSP; [5]): relatively high DSP expression level; DSP expression level (DSP; [6]): relatively very high DSP expression levels; dentin regeneration (histological analysis, H&E) [2]: new physiologic dentin (TD) which was continuous with the odontoblast processes of the original dentin was formed; pulp-like tissue formation inside root canals (H-E) ([3]; 10 μg/ml, FIG. 9): vascularized pulp-like tissues were formed; newly formed dentin in root canal (H-E) ([3]; FIG. 9 C, D and D′): newly formed dentin was observed in the existing dentinal wall; odontoblast-like cells on existing dentinal wall (H-E) ([3]; FIG. 9 C, D and D′): odontoblast-like cells exhibited a palisade arrangement on the existing dentinal wall; odontoblast-like cells on existing dentinal wall (scanning microscopic images) ([3]; FIG. 9 G and H): odontoblast-like cells exhibited a palisade arrangement on the existing dentinal wall; BSP expression level (BSP; [5]): low BSP expression level; BSP expression level (BSP; [6]): low BSP expression level"
